# Values of other authors as cited in patent publication US20240423900A1, “ANHYDROUS BARRIER AND ANTIOXIDANT COMPOSITIONS” (Baek Clinical Inc., priority 2023, published 2024).
# What was measured:
# [1] = general statement, no test described
# human skin = settings: general statement, no test described
structure (smiles),measurement,setting,value
"CC(C)CCCC(C)CCCC(C)CCCCC(C)CCCC(C)CCCC(C)C (centres unmarked) [Squalane, squalane]",acute toxicity,[1],low acute toxicity
same,human skin irritant or sensitizer,human skin,not a significant human skin irritant or sensitizer
